From US5622962A, “5α-reductase inhibitors” (priority 1995, dated 1997) come the findings set out here.

The target in experiment [1] is T1, Type II 5α-Reductase from Human Prostate (Homo sapiens, UniProt P31213).
T1 construct: The same procedure as above was used for preparations using tissue from prostate surgery; from tissue; host or cells: human prostate tissue from surgery, homogenate, 100,000×g pellet
T1 sequence (P31213 1-254): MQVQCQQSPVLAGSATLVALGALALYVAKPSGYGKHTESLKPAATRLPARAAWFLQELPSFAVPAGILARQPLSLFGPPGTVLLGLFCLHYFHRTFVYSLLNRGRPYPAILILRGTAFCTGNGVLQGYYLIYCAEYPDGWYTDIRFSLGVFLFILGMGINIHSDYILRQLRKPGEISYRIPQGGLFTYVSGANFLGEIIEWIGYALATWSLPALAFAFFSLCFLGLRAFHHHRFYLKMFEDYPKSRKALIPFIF
In words: Human Type II 5α-reductase assay (conversion of [3H]-testosterone to 5α-reduced metabolites). The experiment is classed as biochemical.

Experiment [2] concerns the target T2, Type I 5α-Reductase from Human Scalp (Homo sapiens, UniProt P18405).
T2 construct: Scalp punch biopsies from graft recipient sites were obtained from human hair transplant procedures; from tissue; host or cells: human scalp punch biopsies (hair transplant graft recipient sites), homogenate, 100,000×g pellet
T2 sequence (P18405 1-259): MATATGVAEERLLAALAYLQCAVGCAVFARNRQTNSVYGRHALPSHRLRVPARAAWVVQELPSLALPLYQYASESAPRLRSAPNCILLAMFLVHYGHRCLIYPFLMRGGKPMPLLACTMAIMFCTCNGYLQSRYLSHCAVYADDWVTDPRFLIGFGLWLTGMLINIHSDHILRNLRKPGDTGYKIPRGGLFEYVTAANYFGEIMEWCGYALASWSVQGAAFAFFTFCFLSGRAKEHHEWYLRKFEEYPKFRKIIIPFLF
Put plainly: Human Type I 5α-reductase assay (conversion of [3H]-testosterone to 5α-reduced metabolites). The experiment is classed as biochemical.

The mark [3] stands for this setting: pH 5.5, 0.3 μM, sodium acetate pH 5.5, 25°, 30 min, compared to control reaction mixtures, read-out: percent inhibition of Type II AR.
Where [4] appears, read: pH 7.5, 0.3 μM, 50 nM [3H]-testosterone, pH 7.5, 25°, 180 min, compared to control reaction mixtures, read-out: percent inhibition of Type I AR.

Values joined by “and” are separate entries in the source; they are usually repeats but may differ in a detail not shown here. Equal entries are not always repeated. Where two headings read alike, the source gives them in different places.

With `CN1C(=O)CC[C@]2(C)c3ccc(-c4cc(Cl)cc(Cl)c4)cc3CC[C@@H]12` [Example 52, (+)-(4aR)-(10bR)-4-methyl-8-(3,5-dichlorophenyl)-10b-methyl-1,2,3,4,4a,5,6,10b-octahydrobenzo[f]quinolin-3-one], the values for the inhibition at 0.3 µM in experiment [1] (setting [3]) and in experiment [2] (setting [4]) were 10% and 68%, respectively.
For the compound `CN1C(=O)CC[C@]2(C)c3ccc(-c4cccc5ccccc45)cc3CC[C@@H]12` [Example 53, (+)-(4aR)-(10bR)-4-methyl-8-(1-naphthyl)-10b-methyl-1,2,3,4,4a,5,6,10b-octahydrobenzo[f]quinolin-3-one], the inhibition at 0.3 µM in experiment [1] (setting [3]) came out at 41%. In experiment [2] (0.3 μM, 50 nM [3H]-testosterone, pH 7.5, 25°, 180 min, compared to control reaction mixtures), the “percent inhibition of Type I AR” value is 100% and 66%.
Take `CN1C(=O)CC[C@]2(C)c3ccc(-c4cccc(-c5ccccc5)c4)cc3CC[C@@H]12` [Example 55, (+)-(4aR)-(10bR)-4-methyl-8-(3-biphenyl)-10b-methyl-1,2,3,4,4a,5,6,10b-octahydrobenzo[f]quinolin-3-one]: the results for the inhibition at 0.3 µM in experiment [1] (setting [3]) and in experiment [2] (setting [4]) were 11% and 68%, respectively.
`CN1C(=O)CC[C@]2(C)c3ccc(-c4ccc(Oc5ccccc5)cc4)cc3CC[C@@H]12` [Example 56, (+)-(4aR)-(10bR)-4-methyl-8-(4-phenoxyphenyl)-10b-methyl-1,2,3,4,4a,5,6,10b-octahydrobenzo[f]quinolin-3-one]: the figures for the inhibition at 0.3 µM in experiment [1] (setting [3]) and in experiment [2] (setting [4]) were 3% and 92%, respectively.
For `CN1C(=O)CC[C@]2(C)c3ccc(-c4ccc(O)c(C=O)c4)cc3CC[C@@H]12` [Example 58, (+)-(4aR)-(10bR)-4-methyl-8-(3-formyl-4-hydroxyphenyl)-10b-methyl-1,2,3,4,4a,5,6,10b-octahydrobenzo[f]quinolin-3-one], the inhibition at 0.3 µM in experiment [1] (setting [3]) was found to be 24%; in experiment [2] (setting [4]), 65%.
For `CN1C(=O)CC[C@]2(C)c3ccc(-c4c5ccccc5cc5ccccc45)cc3CC[C@@H]12` [Example 61, (+)-(4aR)-(10bR)-4-methyl-8-(9-anthracenyl)-10b-methyl-1,2,3,4,4a,5,6,10b-octahydrobenzo[f]quinolin-3-one] the same measures were 36% and 53%.
For `CN1C(=O)CC[C@]2(C)c3ccc(-c4ccc5cc(OCc6ccccc6)ccc5c4)cc3CC[C@@H]12` [Example 62, (+)-(4aR)-(10bR)-4-methyl-8-(2-[6-benzyloxy]naphthyl)-10b-methyl-1,2,3,4,4a,5,6,10b-octahydrobenzo[f]quinolin-3-one] the same measures were 42% and 45%.
For `CN1C(=O)CC[C@]2(C)c3ccc(-c4ccc(F)c5ccccc45)cc3CC[C@@H]12` [Example 64, (+)-(4aR)-(10bR)-4-methyl-8-(1-[4-fluoro]naphthyl)-10b-methyl-1,2,3,4,4a,5,6,10b-octahydrobenzo[f]quinolin-3-one] the same measures were 22% and 81%.
For `Cc1ccc(-c2ccc3c(c2)CC[C@H]2N(C)C(=O)CC[C@]32C)c2ccccc12` [Example 65, (+)-(4aR)-(10bR)-4-methyl-8-(1-[4-methyl]naphthyl)-10b-methyl-1,2,3,4,4a,5,6,10b-octahydrobenzo[f]quinolin-3-one], the inhibition at 0.3 µM in experiment [1] (setting [3]) came out at 42%; in experiment [2] (setting [4]) it was 79%.
For `CN1C(=O)CC[C@]2(C)c3ccc(-c4ccc5c6c(cccc46)CC5)cc3CC[C@@H]12` [Example 66, (+)-(4aR)-(10bR)-4-methyl-8-(5-acenaphthenyl)-10b-methyl-1,2,3,4,4a,5,6,10b-octahydrobenzo[f]quinolin-3-one] the same measures were 33% and 67%.
For `CN1C(=O)CC[C@]2(C)c3ccc(-c4cc5ccccc5c5ccccc45)cc3CC[C@@H]12` [Example 67, (+)-(4aR)-(10bR)-4-methyl-8-(9-phenanthrenyl)-10b-methyl-1,2,3,4,4a,5,6,10b-octahydrobenzo[f]quinolin-3-one], the inhibition at 0.3 µM worked out at 54% in experiment [1] (pH 5.5, read-out: percent inhibition of Type II AR) and 22% in experiment [2] (pH 7.5, read-out: percent inhibition of Type I AR).
As to `CCCN(CC1CC1)c1ccc(-c2ccc3c(c2)CC[C@H]2N(C)C(=O)CC[C@]32C)c2ccccc12` [Example 68, (+)-(4aR)-(10bR)-4-methyl-8-(4-[N-propyl,N-cyclopropylmethylamino]-1-naphthyl)-10b-methyl-1,2,3,4,4a,5,6,10b-octahydrobenzo[f]quinolin-3-one], the inhibition at 0.3 µM in experiment [1] (setting [3]) was 37%; in experiment [2] (setting [4]) it was 31%.
For `Cc1cccc(-c2ccc3c(c2)CC[C@H]2N(C)C(=O)CC[C@]32C)c1C` [Example 69, (+)-(4aR)-(10bR)-4-methyl-8-(2,3-dimethylphenyl)-10b-methyl-1,2,3,4,4a,5,6,10b-octahydrobenzo[f]quinolin-3-one] the same measures were 6% and 84%.
For `CN1C(=O)CC[C@]2(C)c3ccc(-c4ccc5ccccc5c4)cc3CC[C@@H]12` [Example 71, (+)-(4aR)-(10bR)-4-methyl-8-(2-naphthyl)-10b-methyl-1,2,3,4,4a,5,6,10b-octahydrobenzo[f]quinolin-3-one] the same measures were 47% and 80%.
For `Cc1ccc2ccccc2c1-c1ccc2c(c1)CC[C@H]1N(C)C(=O)CC[C@]21C` [Example 72, (+)-(4aR)-(10bR)-4-methyl-8-(1-[2-methyl]naphthyl)-10b-methyl-1,2,3,4,4a,5,6,10b-octahydrobenzo[f]quinolin-3-one] the same measures were 26% and 16%.
With `CN1C(=O)CC[C@]2(C)c3ccc(-c4cccc(Cl)c4Cl)cc3CC[C@@H]12` [Example 73, (+)-(4aR)-(10bR)-4-methyl-8-(2,3-dichlorophenyl)-10b-methyl-1,2,3,4,4a,5,6,10b-octahydrobenzo[f]quinolin-3-one], the values for the inhibition at 0.3 µM in experiment [1] (setting [3]) and in experiment [2] (setting [4]) were 16% and 87%, respectively.
With `CCN(CC)C(=O)c1ccccc1-c1ccc2c(c1)CC[C@H]1N(C)C(=O)CC[C@]21C` [Example 74], the inhibition at 0.3 µM in experiment [1] (setting [3]) stood at 26%; in experiment [2] (setting [4]), 16%.
For `CN1C(=O)CC[C@]2(C)c3ccc(-c4ccc(C(C)(C)C)cc4)cc3CC[C@@H]12` [Example 75, (+)-(4aR)-(10bR)-4-methyl-8-(4-t-butylphenyl)-10b-methyl-1,2,3,4,4a,5,6,10b-octahydrobenzo[f]quinolin-3-one] the same measures were 40% and 63%.
Regarding `CCCCc1ccc(-c2ccc3c(c2)CC[C@H]2N(C)C(=O)CC[C@]32C)cc1` [Example 76, (+)-(4aR)-(10bR)-4-methyl-8-(4-n-butylphenyl)-10b-methyl-1,2,3,4,4a,5,6,10b-octahydrobenzo[f]quinolin-3-one], the inhibition at 0.3 µM stood at 46% in experiment [1] (setting [3]) and 83% in experiment [2] (setting [4]).
With `CN1C(=O)CC[C@]2(C)c3ccc(-c4ccc(Cl)c(Cl)c4)cc3CC[C@@H]12` [Example 77, (+)-(4aR)-(10bR)-4-methyl-8-(3,4-dichlorophenyl)-10b-methyl-1,2,3,4,4a,5,6,10b-octahydrobenzo[f]quinolin-3-one], the “percent inhibition of Type II AR” value in experiment [1] (0.3 μM, sodium acetate pH 5.5, 25°, 30 min, compared to control reaction mixtures) worked out at 33%. Also, the inhibition at 0.3 µM in experiment [1] (setting [3]) turned out to be 46%; in experiment [2] (setting [4]), 88%.
On to `CN1C(=O)CC[C@]2(C)c3ccc(-c4cccc(C(F)(F)F)c4)cc3CC[C@@H]12` [Example 80, (+)-(4aR)-(10bR)-4-methyl-8-(3-trifluoromethylphenyl)-10b-methyl-1,2,3,4,4a,5,6,10b-octahydrobenzo[f]quinolin-3-one], for which the inhibition at 0.3 µM in experiment [1] (setting [3]) is 29%; in experiment [2] (setting [4]), 76%.
For `COc1ccc2cc(-c3ccc4c(c3)CC[C@H]3N(C)C(=O)CC[C@]43C)ccc2c1` [Example 81, (+)-(4aR)-(10bR)-4-methyl-8-(2-[6-methoxy]naphthyl)-10b-methyl-1,2,3,4,4a,5,6,10b-octahydrobenzo[f]quinolin-3-one] the same measures were 25% and 92%.
For `CN1C(=O)CC[C@]2(C)c3ccc(-c4cc5ccccc5s4)cc3CC[C@@H]12` [Example 82, (+)-(4aR)-(10bR)-4-methyl-8-(2-benzothienyl)-10b-methyl-1,2,3,4,4a,5,6,10b-octahydrobenzo-[f]quinolin-3-one] the same measures were 31% and 85%.
For the compound `CN1C(=O)CC[C@]2(C)c3ccc(-c4ccc(-c5ccccc5)cc4)cc3CC[C@@H]12` [Example 84, (+)-(4aR)-(10bR)-4-methyl-8-(4-biphenyl)-10b-methyl-1,2,3,4,4a,5,6,10b-octahydrobenzo[f]quinolin-3-one], the inhibition at 0.3 µM was determined as 23% in experiment [1] (setting [3]) and 88% in experiment [2] (setting [4]).
